Measurements published in PMC4303209, “A novel phosphatidylinositol 3-kinase (PI3K) inhibitor directs a potent FOXO-dependent, p53-independent cell cycle arrest phenotype characterized by the differential induction of a subset of FOXO-regulated genes” (Breast Cancer Research : BCR, 2014).

System: MCF-7 breast cancer cells
Assay: Microarray gene expression analysis (Agilent whole human genome 4 x 44K; compound vs DMSO, LIMMA log2 fold change)
Format: cell-based
Conditions: cell cycle genes

## Cn1ncc2c(N3CCOCC3)nc(-c3cccc(O)c3)nc21 [ETP-45658]
Gene 994
  CDC25B log2FC: -0.243
Gene 995
  CDC25C log2FC: 1.417
Gene 997
  CDC34 log2FC: 0.349
Gene 998
  CDC42 log2FC: 0.143
Gene 1017
  CDK2 log2FC: -0.519
Gene 1018
  CDK3 log2FC: -0.108
Gene 1019
  CDK4 log2FC: 0.113
Gene 1020
  CDK5 log2FC: -0.089
Gene 1022
  CDK7 log2FC: 0.920
Gene 1026
  CDKN1A log2FC: -1.401
Gene 1027
  CDKN1B log2FC: 1.129
Gene 1028
  CDKN1C log2FC: 0.689
Gene 1029
  CDKN2A log2FC: 0.240
Gene 1032
  CDKN2D log2FC: 0.891
Gene 1033
  CDKN3 log2FC: 0.104
Gene 1058
  CENPA log2FC: 0.094
Gene 1062
  CENPE log2FC: 1.101
Gene 1063
  CENPF log2FC: 1.562
Gene 1069
  CETN2 log2FC: 0.059
Gene 1107
  CHD3 log2FC: -0.048
Gene 1111
  CHEK1 log2FC: 0.461
Gene 1163
  CKS1B log2FC: 0.101
Gene 1164
  CKS2 log2FC: -0.752
Gene 1213
  CLTC log2FC: 0.237
Gene 1263
  PLK3 log2FC: -1.808
Gene 1386
  ATF2 log2FC: 0.857
Gene 1389
  CREBL2 log2FC: 0.823
Gene 1432
  MAPK14 log2FC: -0.291
Gene 1452
  CSNK1A1 log2FC: 0.166
Gene 1453
  CSNK1D log2FC: -0.308
Gene 1454
  CSNK1E log2FC: -0.533
Gene 1457
  CSNK2A1 log2FC: -0.545
Gene 1487
  CTBP1 log2FC: -0.371
Gene 1490
  CTGF log2FC: -0.597
Gene 1540
  CYLD log2FC: 0.499
Gene 1594
  CYP27B1 log2FC: -0.054
Gene 1613
  DAPK3 log2FC: -0.132
Gene 1642
  DDB1 log2FC: 0.227
Gene 1649
  DDIT3 log2FC: 2.364
Gene 1654
  DDX3X log2FC: -1.156
Gene 1718
  DHCR24 log2FC: -0.643
Gene 1719
  DHFR log2FC: 0.876
Gene 1739
  DLG1 log2FC: 0.053
Gene 1761
  DMRT1 log2FC: 0.148
Gene 1781
  DYNC1I2 log2FC: 0.828
Gene 1785
  DNM2 log2FC: -0.047
Gene 1814
  DRD3 log2FC: -0.082
Gene 1843
  DUSP1 log2FC: -0.931
Gene 1845
  DUSP3 log2FC: 0.560
Gene 1859
  DYRK1A log2FC: 0.448
Gene 1869
  E2F1 log2FC: -0.356
Gene 1870
  E2F2 log2FC: -0.581
Gene 1871
  E2F3 log2FC: -0.373
Gene 1874
  E2F4 log2FC: -0.621
Gene 1875
  E2F5 log2FC: 0.382
Gene 1876
  E2F6 log2FC: -0.321
Gene 1877
  E4F1 log2FC: 0.414
Gene 1894
  ECT2 log2FC: 1.058
Gene 1908
  EDN3 log2FC: -0.056
Gene 1950
  EGF log2FC: -0.024
Gene 1956
  EGFR log2FC: 0.311
Gene 1978
  EIF4EBP1 log2FC: -0.081
Gene 1982
  EIF4G2 log2FC: 0.237
Gene 2010
  EMD log2FC: -0.178
Gene 2029
  ENSA log2FC: -0.068
Gene 2059
  EPS8 log2FC: 0.516
Gene 2068
  ERCC2 log2FC: -0.566
Gene 2071
  ERCC3 log2FC: -0.084
Gene 2072
  ERCC4 log2FC: 0.186
Gene 2077
  ERF log2FC: 0.135
Gene 2079
  ERH log2FC: -0.238
Gene 2081
  ERN1 log2FC: -0.168
Gene 2113
  ETS1 log2FC: -0.590
Gene 2146
  EZH2 log2FC: 0.722
Gene 2189
  FANCG log2FC: -0.077
Gene 2237
  FEN1 log2FC: -0.980
Gene 2241
  FER log2FC: 0.332
Gene 2247
  FGF2 log2FC: 0.202
Gene 2253
  FGF8 log2FC: -0.131
Gene 2255
  FGF10 log2FC: 0.033
Gene 2260
  FGFR1 log2FC: -0.387
Gene 2261
  FGFR3 log2FC: -0.382
Gene 2263
  FGFR2 log2FC: 1.543
Gene 2273
  FHL1 log2FC: 0.046
Gene 2296
  FOXC1 log2FC: -0.876
Gene 2305
  FOXM1 log2FC: -0.360
Gene 2316
  FLNA log2FC: -0.229
Gene 2342
  FNTB log2FC: -0.574
Gene 2619
  GAS1 log2FC: 0.711
Gene 2620
  GAS2 log2FC: 0.183
Gene 2621
  GAS6 log2FC: -0.052
Gene 2672
  GFI1 log2FC: 0.062
Gene 2770
  GNAI1 log2FC: 1.186
Gene 2771
  GNAI2 log2FC: -0.343
Gene 2773
  GNAI3 log2FC: 0.669
Gene 2810
  SFN log2FC: -1.182
Gene 2827
  GPR3 log2FC: -0.277
Gene 2873
  GPS1 log2FC: -0.145
Gene 2874
  GPS2 log2FC: -0.087
Gene 2932
  GSK3B log2FC: -0.607
Gene 2935
  GSPT1 log2FC: -0.172
Gene 2956
  MSH6 log2FC: 0.235
Gene 2965
  GTF2H1 log2FC: 0.573
Gene 3014
  H2AFX log2FC: -1.128
Gene 3054
  HCFC1 log2FC: -0.769
Gene 3065
  HDAC1 log2FC: -0.487
Gene 3066
  HDAC2 log2FC: 0.164
Gene 3082
  HGF log2FC: -0.369
Gene 3087
  HHEX log2FC: -0.222
Gene 3169
  FOXA1 log2FC: 0.031
Gene 3209
  HOXA13 log2FC: 0.081
Gene 3265
  HRAS log2FC: -0.664
Gene 3275
  PRMT2 log2FC: 0.361
Gene 3280
  HES1 log2FC: -1.195
Gene 3297
  HSF1 log2FC: 0.106
Gene 3306
  HSPA2 log2FC: -1.351
Gene 3320
  HSP90AA1 log2FC: 1.066
Gene 3398
  ID2 log2FC: 1.025
Gene 3399
  ID3 log2FC: -0.237
Gene 3458
  IFNG log2FC: -0.055
Gene 3479
  IGF1 log2FC: 0.046
Gene 3480
  IGF1R log2FC: 0.075
Gene 3481
  IGF2 log2FC: 0.014
Gene 3552
  IL1A log2FC: -0.044
Gene 3553
  IL1B log2FC: -0.057
Gene 3576
  IL8 log2FC: -1.203
Gene 3593
  IL12B log2FC: -0.025
Gene 3609
  ILF3 log2FC: -0.460
Gene 3611
  ILK log2FC: -0.066
Gene 3619
  INCENP log2FC: -0.174
Gene 3622
  ING2 log2FC: 0.424
Gene 3623
  INHA log2FC: -0.101
Gene 3642
  INSM1 log2FC: -0.209
Gene 3643
  INSR log2FC: 0.664
Gene 3664
  IRF6 log2FC: 0.370
Gene 3688
  ITGB1 log2FC: 0.722
Gene 3725
  JUN log2FC: -0.912
Gene 3726
  JUNB log2FC: -0.596
Gene 3832
  KIF11 log2FC: 0.922
Gene 3875
  KRT18 log2FC: -0.481
Gene 3925
  STMN1 log2FC: 0.176
Gene 3976
  LIF log2FC: -1.818
Gene 3978
  LIG1 log2FC: -0.097
Gene 3980
  LIG3 log2FC: -0.509
Gene 3993
  LLGL2 log2FC: -0.345
Gene 4041
  LRP5 log2FC: -0.510
Gene 4085
  MAD2L1 log2FC: 0.081
Gene 4088
  SMAD3 log2FC: 0.254
Gene 4172
  MCM3 log2FC: -0.047
Gene 4174
  MCM5 log2FC: -0.158
Gene 4176
  MCM7 log2FC: 0.104
Gene 4193
  MDM2 log2FC: -0.059
Gene 4194
  MDM4 log2FC: 0.064
Gene 4218
  RAB8A log2FC: -0.531
Gene 4282
  MIF log2FC: 0.242
Gene 4288
  MKI67 log2FC: 0.040
